Laboratory results published in US20190047966A1, “NOVEL COMPOUND AND PHARMACOLOGICALLY ACCEPTABLE SALT THEREOF” (MEIJI SEIKA PHARMA CO., LTD., priority 2016, published 2019).
Counter-ions that a name gives are not always drawn.

Experiments:
[1] = target: T1, human histamine H4 receptor (Homo sapiens, UniProt Q9H3N8); experiment: Evaluation of Human H4 Receptor Affinity ([3H]histamine binding); settings: inhibition constant Ki, CHO-K1 membrane preparation, read-out: Evaluation of H4 Receptor Affinity
T1 construct: purchased PerkinElmer Inc; host or cells: CHO-K1
How it was run: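 Membranes from CHO-K1 cells expressing human H4 receptor incubated with 8.2 nM [3H]histamine and compound for 90 min at 25 °C in 50 mM Tris-HCl pH 7.4, 1.25 mM EDTA, then filtered and counted. Nonspecific binding defined with 1.0 μM histamine; Ki from IC50 by Cheng-Prusoff using Kd 5.7 nM.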

[2] = target: human histamine H1 receptor (Homo sapiens, UniProt P35367); experiment: Evaluation of Human H1 Receptor Affinity ([3H]pyrilamine binding); design: purchased PerkinElmer Inc; host or cells: CHO-K1; settings: inhibition constant Ki, CHO-K1 membrane preparation
How it was run: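 Ki values are Cheng-Prusoff conversions of IC50 (Kd 1.1 nM) from radioligand displacement of 1.2 nM [3H]pyrilamine, with 1.0 μM pyrilamine defining nonspecific binding.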

human histamine H1 receptor, sequence (P35367 whole entry): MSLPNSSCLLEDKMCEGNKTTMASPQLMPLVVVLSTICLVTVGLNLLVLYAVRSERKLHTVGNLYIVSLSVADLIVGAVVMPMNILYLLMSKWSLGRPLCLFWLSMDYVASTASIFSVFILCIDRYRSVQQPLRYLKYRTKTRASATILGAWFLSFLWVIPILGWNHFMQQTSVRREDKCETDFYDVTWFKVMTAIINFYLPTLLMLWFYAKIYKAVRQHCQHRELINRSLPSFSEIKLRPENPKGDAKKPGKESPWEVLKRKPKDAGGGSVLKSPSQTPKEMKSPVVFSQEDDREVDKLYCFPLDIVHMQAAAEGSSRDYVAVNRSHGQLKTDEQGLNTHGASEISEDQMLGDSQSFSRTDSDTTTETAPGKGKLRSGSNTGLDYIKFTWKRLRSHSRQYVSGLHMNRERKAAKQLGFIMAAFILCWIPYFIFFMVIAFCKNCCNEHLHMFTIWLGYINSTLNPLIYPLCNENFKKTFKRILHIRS
T1 sequence (Q9H3N8 whole entry): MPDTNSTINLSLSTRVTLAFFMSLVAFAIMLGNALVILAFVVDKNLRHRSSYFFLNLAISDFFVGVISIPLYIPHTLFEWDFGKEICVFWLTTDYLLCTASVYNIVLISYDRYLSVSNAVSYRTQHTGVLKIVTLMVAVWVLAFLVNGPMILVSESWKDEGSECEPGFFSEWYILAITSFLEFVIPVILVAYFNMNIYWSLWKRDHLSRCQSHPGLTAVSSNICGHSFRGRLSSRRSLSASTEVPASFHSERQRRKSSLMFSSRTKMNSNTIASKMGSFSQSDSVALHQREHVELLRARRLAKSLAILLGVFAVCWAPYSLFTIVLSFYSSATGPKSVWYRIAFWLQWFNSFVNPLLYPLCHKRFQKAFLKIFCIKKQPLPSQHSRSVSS

Compound	Ki [1] [nM]	Ki [2] [nM]
Nc1nc2c(c(N3CCN(CCO[C@H]4CC[C@H]5[C@H](C(=O)O)[C@H]54)CC3)n1)CCc1cc(OCc3ccc(OC(F)(F)F)cc3)ccc1-2 [Example 181, (1S,25,5R,65)-2-(2-(4-(2-amino-8-((4-(trifluoromethoxy)benzyl)oxy)-5,6-dihydrobenzo[h]quinazolin-4-yl)piperazin-1-yl)ethoxy)bicyclo[3.1.0]hexane-6-carboxylic acid]	100 to 500	< 100
Nc1nc2c(c(N3CCN(CCOCc4ccc(C(=O)O)s4)CC3)n1)CCc1cc(OCc3ccc(OC(F)(F)F)cc3)ccc1-2 [Example 182, 5-((2-(4-(2-amino-8-((4-(trifluoromethoxy)benzyl)oxy)-5,6-dihydrobenzo[h]quinazolin-4-yl)piperazin-1-yl)ethoxy)methyl)thiophene-2-carboxylic acid]	100 to 500	< 100
Nc1nc2c(c(N3CCN(CCOc4csc(C(=O)O)c4)CC3)n1)CCc1cc(OCc3ccc(OC(F)(F)F)cc3)ccc1-2 [Example 183, 4-(2-(4-(2-amino-8-((4-(trifluoromethoxy)benzyl)oxy)-5,6-dihydrobenzo[h]quinazolin-4-yl)piperazin-1-yl)ethoxy)thiophene-2-carboxylic acid]	< 100	< 100
Nc1nc2c(c(N3CCN(CCOCC4CCCC(C(=O)O)C4)CC3)n1)CCc1cc(OCc3ccc(OC(F)(F)F)cc3)ccc1-2 (stereo not drawn) [Example 185, trans-3-((2-(4-(2-amino-8-((4-(trifluoromethoxy)benzyl)oxy)-5,6-dihydrobenzo[h]quinazolin-4-yl)piperazin-l-yl)ethoxy)methyl)cyclohexane-1-carboxylic acid dihydrochloride]	< 100	< 100
CS(=O)(=O)NC(=O)COCCOCCN1CCN(c2nc(N)nc3c2CCc2cc(OCc4ccc(Cl)cc4)ccc2-3)CC1 [Example 187, 2-(2-(2-(4-(2-amino-8-((4-chlorobenzyl)oxy)-5,6-dihydrobenzo[h]quinazolin-4-yl)piperazin-1-yl)ethoxy)ethoxy)-N-(methylsulfonyl)acetamide]	100 to 500	< 100
CNC(=O)COCCOCCN1CCN(c2nc(N)nc3c2CCc2cc(OCc4ccc(Cl)cc4)ccc2-3)CC1 [Example 188, 2-(2-(2-(4-(2-amino-8-((4-chlorobenzyl)oxy)-5,6-dihydrobenzo[h]quinazolin-4-yl)piperazin-1-yl)ethoxy)ethoxy)-N-methylacetamide dihydrochloride]	< 100	< 100
Nc1nc2c(c(N3CCN(CCO[C@H]4C[C@@H](C(=O)NO)C4)CC3)n1)CCc1cc(OCc3ccc(OC(F)(F)F)cc3)ccc1-2 [Example 189, cis 3-(2-(4-(2-amino-8-((4-(trifluoromethoxy)benzyl)oxy)-5,6-dihydrobenzo[h]quinazolin-4-yl)piperazin-1-yl)ethoxy)-N-hydroxycyclobutane-l-carboxamide]	< 100	< 100
Nc1nc2c(c(N3CCN(CCOCC4CN(C5=NS(=O)(=O)N=C5O)C4)CC3)n1)CCc1cc(OCc3ccc(OC(F)(F)F)cc3)ccc1-2 [Example 190(b), 3-(3-((2-(4-(2-amino-8-((4-(trifluoromethoxy)benzyl)oxy)-5,6-dihydrobenzo[h]quinazolin-4-yl)piperazin-1-yl)ethoxy)methyl)azetidin-1-yl)-4-hydroxy-1,2,5-thiadiazole 1,1-dioxide]	< 100	< 100
CN1CCN(c2nc(N)nc3c2CCc2cc(NS(=O)(=O)c4ccc(OCC(F)(F)F)cc4)ccc2-3)CC1 [Example 191, N-(2-amino-4-(4-methylpiperazin-1-yl)-5,6-dihydrobenzo[h]quinazolin-8-yl)-4-(2,2,2-trifluoroethoxy)benzenesulfonamide]	< 100	< 100
Nc1nc2c(c(N3CCNCC3)n1)CCc1cc(NS(=O)(=O)c3ccc(OC(F)(F)F)cc3)ccc1-2 [Example 192, N-(2-amino-4-(4-piperazin-1-yl)-5,6-dihydrobenzo[h]quinazolin-8-yl)-4-(trifluoromethoxy)benezenesulfonamide hydrochloride]	< 100	< 100
CN1CCCN(c2nc(N)nc3c2CCc2cc(NS(=O)(=O)c4ccc(OC(F)(F)F)cc4)ccc2-3)CC1 [Example 193, N-(2-amino-4-(4-methyl-1,4-diazepan-1-yl)-5,6-dihydrobenzo[h]quinazolin-8-yl)-4-(trifluoromethoxy)benzenesulfonamide bis(trifluoroacetate)]	< 100	< 100
CN1CCN(c2nc(N)nc3c2CCc2cc(NS(=O)(=O)N4CCC(F)(F)CC4)ccc2-3)CC1 [Example 194, N-(2-amino-4-(4-methylpiperazin-1-yl)-5,6-dihydrobenzo[h]quinazolin-8-yl)-4,4-difluoropiperidine-1-sulfonamide]	100 to 500	100 to 500
CN1CCN(c2nc(N)nc3c2CCc2cc(NC(=O)Nc4ccc(Cl)cc4)ccc2-3)CC1 [Example 195, 1-(2-amino-4-(4-methylpiperazin-1-yl)-5,6-dihydrobenzo[h]quinazolin-8-yl)-3-(4-chlorophenyl)urea]	< 100	100 to 500
CN1CCN(c2nc(N)nc3c2CCc2cc(OCc4ccc(Br)cc4)ccc2-3)CC1 [Example 197, 8-((4-bromobenzyl)oxy)-4-(4-methylpiperazin-1-yl)-5,6-dihydrobenzo[h]quinazolin-2-amine]	< 100	< 100
CN1CCN(c2nc(N)nc3c2CCc2cc(OCc4ccc(OC(F)(F)F)cc4)ccc2-3)CC1 [Example 198, 4-(4-methylpiperazin-1-yl)-8-((4-(trifluoromethoxy)benzyl)oxy)-5,6-dihydrobenzo[h]quinazolin-2-amine]	< 100	< 100
CN1CCN(c2nc(N)nc3c2CCc2cc(OCC4CCOCC4)ccc2-3)CC1 [Example 199, 4-(4-methylpiperazin-1-yl)-8-((tetrahydro-2H-pyran-4-yl)methoxy)-5,6-dihydrobenzo[h]quinazolin-2-amine]	100 to 500	100 to 500
CN1CCN(c2nc(N)nc3c2CCc2ccc(OCc4ccccc4)cc2-3)CC1 [Example 200, 9-(benzyloxy)-4-(4-methylpiperazin-1-yl)-5,6-dihydrobenzo[h]quinazolin-2-amine]	< 100	< 100
CN1CCN(c2nc(N)nc3c2CCCc2ccc(OCc4ccccc4)cc2-3)CC1 [Example 202, 10-(benzyloxy)-4-(4-methylpiperazin-1-yl)-6,7-dihydro-5H-benzo[6,7]cyclohepta[1,2-d]pyrimidin-2-amine]	< 100	100 to 500
CN1CCN(c2nc(N)nc3c2oc2ccc(OCc4ccccc4)cc23)CC1 [Example 203, 8-(benzyloxy)-4-(4-methylpiperazin-1-yl)benzofuro[3,2-d]pyrimidin-2-amine]	< 100	< 100
CN1CCN(c2nc(N)nc3c2CCOc2cc(OCc4ccccc4)ccc2-3)CC1 [Example 204, 9-(benzyloxy)-4-(4-methylpiperazin-1-yl)-5,6-dihydrobenzo[2,3]oxepino[4,5-d]pyrimidin-2-amine]	< 100	< 100
